What was measured:
SW620 cells [1] = assay: Apoptosis and TRAIL sensitization of SW620 cells (PI/annexin V flow cytometry); format: cell-based, human
Method: Cells were seeded in wells of 96-well plates for 2 days and then treated with different concentrations of mushroom extract fractions or purified verticillin A for 2 days. The cells were stained with propidium iodide (PI) (Trevigen, Gaithersburg, Md.) or PI plus annexin V-Alex Fluor 647 (Biolegend, San Diego, Calif.) and analyzed by flow cytometry.
SW620 is a metastatic human colon carcinoma cell line that is resistant to TRAIL-induced apoptosis (Voelkel-Johnson C, et al. Mol Cancer Ther 2005 4(9):1320-7).

SW620 cells [2] = assay: Sensitization to FasL-induced apoptosis; format: cell-based, human; details: SW620, verticillin A pre-treatment then recombinant FasL
Method: Because the Fas-mediated apoptosis and TRAIL-induced apoptosis share similar signaling pathways, it was next tested whether Verticillin A also sensitizes tumor cells to FasL-induced apoptosis. SW620 cells were treated with verticillin A, followed by treatment with recombinant FasL.

HepG2 cells [3] = assay: MTT growth inhibition, HepG2; format: cell-based, human
Method: (§1) For cell viability assay, cells were seeded in wells of 96-well plates for 2 days and then treated with different concentrations of mushroom extract fractions or purified verticillin A for 2 days. The cells were then incubated with MTT (3-(4,5-dimethylthiazol-2-yl)-2,5-diphenyltetrazolium bromide) using the MTT assay kit (ATCC, Manassas, Va.) according to the manufacturer's instructions.
(§2) The growth inhibitory effort of the purified verticillin A was examined on HepG2 cells. Tumor cells were cultured in the presence of different concentrations of verticillin A and analyzed for the growth by MTT assay 24 and 72 h later, respectively. […] To determine whether the growth inhibitory effect is due to increased tumor cell death, genomic DNA was isolated from the treated tumor cells and analyzed by agarose gel electrophoresis.
(§3) To determine whether verticillin A inhibits other types of tumor cell growth, Mammary carcinoma (Bcap-37 and MCF-7), heptocarcinoma (HepG2), cervical (HeLa), liver (SMMC-7721), lung (SPC-A1) cancer cells and T cell leukemia (Jurkat) were cultured in the presence of different concentrations of verticillin A and examined for the efforts of verticillin A on the growth rate of these tumor cells in vitro.

HepG2 tumor = HepG2 tumor growth in athymic mice; format: in vivo; details: intravenous injection
Method: To determine whether the growth inhibitory effect of verticillin A can be extended to in vivo tumor growth inhibition, HepG2 cells were injected subcutaneously to athymic mice. Tumor-bearing mice were then treated with verticillin A by intravenous injection.
Athymic mice were subcutaneously inoculated with human hepatoma HepG2 and colon carcinoma SW620 cells, respectively. The tumor-bearing mice were randomized into experimental groups. The control mice were given saline. The treatment group was intravenously injected with verticillin A at the doses of 1 and 2 mg/kg body weight. Tumor size was measured in 2 diameter with micrometer caliper at the indicate times to permit calculation of tumor volume, V=(a×b^2)/2, where “a” is the length and “b” is the width in millimeters. At the end of the experiment, all the animals were sacrificed, The tumor inhibitory rates were calculated using the following formula: [(mean tumor volume of control nude mice−mean tumor volume of treated nude mice)/mean tumor volume of control nude mice]×100%.

SPC-A1 = assay: MTT growth inhibition, SPC-A1; format: cell-based; details: SPCA1, Lung Carcinoma, MTT assay
Method: as §1, §3

Jurkat = assay: MTT growth inhibition, Jurkat; format: cell-based; details: Homo sapiens, T Cell Leukemia, MTT assay
Method: as §1, §3

MCF-7 = assay: MTT growth inhibition, MCF-7; format: cell-based; details: Homo sapiens, MCF7, Mammary Carcinoma, MTT assay
Method: as §1, §3

TET1 = TET1 expression, RT-PCR; format: cell-based, human; details: colon carcinoma cells, dose-dependent
Method: FIG. 11A is an acrylamide gel showing that LS411N cells were treated with Verticillin A at the indicated concentrations for 24 h and analyzed for TET1, TET2 and TET3 level by RT-PCR.
TET1 is an enzyme with very recently identified function in converting 5-methylcytosine (5mC) to 5-hydroxylmethylcytosine (5hmC), and eventually to unmodified Cytosine to reverse DNA methylation (Veron N, Peters A H. Epigenetics: Tet proteins in the limelight. Nature 2011; 473:293-4; Ito et al. Tet proteins can convert 5-methylcytosine to 5-formylcytosine and 5-carboxylcytosine. Science 2011; 333:1300-3; Guo et al. Hydroxylation of 5-methylcytosine by TET1 promotes active DNA demethylation in the adult brain. Cell 2011; 145:423-34). […] Thus, Verticillin A is a small molecule TET1 activator. Verticillin A appears to be the first reported small molecule TET1 activator.

HepG2 cells [4] = assay: DNA fragmentation assay; format: cell-based, human; details: HepG2, agarose gel electrophoresis
Method: Tumor cells were lysed in lysis buffer (5 mM Tris-HCl, pH 8.0, 100 mM Ethylenediaminetetraacetic acid (EDTA), 1% (w/v) Sodium dodecyl sulfate (SDS), and proteinase K) at 45° C. for 2 h. RNA was removed by incubation with RNase A. Genomic DNA was extracted by phenol/chloroform/isoamyl alcohol (25:24:1) and precipitated with ethanol. The purified genomic DNA was then analyzed by electrophoresis in a 1.2% agarose gel.
as §2

[5] = system: multiple types of tumor cell lines; assay: Growth inhibition of multiple types of tumor cell lines; format: cell-based
Method: as §1, §3

With CN1C(=O)[C@]23SS[C@]1(C)C(=O)N2C1Nc2ccccc2[C@@]1(C12c4ccccc4NC1N1C(=O)[C@@]4(C)SS[C@]1(C(=O)N4C)[C@H]2O)[C@@H]3O (some centres unmarked) [Verticillin A] as the compound, how does the “sensitization to TRAIL-induced apoptosis” value (SW620 cells [1]; SW620, 10 nM verticillin A in combination with TRAIL) read?
The value was “dramatically sensitized SW620 cells to TRAIL-induced apoptosis”.

What about the “apoptosis induction, single agent” value (SW620 cells [1]; SW620, agent alone) of the same compound?
The value was “induced significant apoptosis”.

And the “concentration that overcomes TRAIL resistance” value (SW620 cells [1]; human cancer cells)?
Its value is 10 nM.

What about the “sensitization to FasL-induced apoptosis” value (SW620 cells [2]) of the same compound?
The value was “significantly increases tumor cells to FasL-induced apoptosis”.

And the “concentration at which the inhibitory effect reached plateau” value (HepG2 cells [3]; HepG2, MTT assay 24 and 72 h)?
The value was 100 to 150 nM.

And the “lowest concentration exhibiting growth inhibitory effect” value (HepG2 cells [3]; HepG2, MTT assay 24 and 72 h)?
Its value is 10 nM.

What about the IC50 (HepG2 cells [3]; Homo sapiens, Hepatoma, HepG2, MTT assay) of the same compound?
Its IC50 is 62 nM.

What about the “inhibitory activity against HepG2 cells” value (HepG2 cells [3]; purified compound, cytotoxicity screen) of the same compound?
The value was “potent inhibitory activity”.

And the “HepG2 tumor growth inhibition” value (HepG2 tumor; 2 mg/kg body weight)?
The value was “significantly inhibited HepG2 tumor growth”.

What about the “HepG2 tumor growth inhibition, dose dependence” value (HepG2 tumor; 1 and 2 mg/kg body weight) of the same compound?
Its value is “tumor growth inhibitory effects at a dose-dependent manner”.

And the IC50 (SPC-A1)?
The IC50 was 30 nM.

And the IC50 (Jurkat)?
Its IC50 is 37 nM.

What about the IC50 (MCF-7) of the same compound?
Its IC50 is 64 nM.

What about the TET1 expression (TET1) of the same compound?
Its TET1 expression is “up-regulates TET1 expression”.

And the “genomic DNA fragmentation” value (HepG2 cells [4])?
The value was “induces genomic DNA fragmentation”.

What about the “growth of tumor cells in vitro” value ([5]; Bcap-37, MCF-7, HepG2, HeLa, SMMC-7721, SPC-A1, Jurkat) of the same compound?
The value was “significantly inhibited the growth of all these tumor cells”.

What about the IC50 ([5]; span over the tumor cell lines of Table 1, read-out: IC50 for multiple types of cancer cells) of the same compound?
The IC50 was < 200 nM.
